Target: SOS1 nucleotide exchange of wild-type KRAS (Homo sapiens (Human), UniProt Q07889)
Experiment: Mode of action assay: inhibition of SOS1 nucleotide exchange activity (TR-FRET)
Assay type: biochemical
Settings: SOS1 catalytic domain (564-1049), avi-tagged KRAS (1-169), EDA-GTP-DY-647P1; three replicates

Chain of SOS1 nucleotide exchange of wild-type KRAS (Q07889 564-1049): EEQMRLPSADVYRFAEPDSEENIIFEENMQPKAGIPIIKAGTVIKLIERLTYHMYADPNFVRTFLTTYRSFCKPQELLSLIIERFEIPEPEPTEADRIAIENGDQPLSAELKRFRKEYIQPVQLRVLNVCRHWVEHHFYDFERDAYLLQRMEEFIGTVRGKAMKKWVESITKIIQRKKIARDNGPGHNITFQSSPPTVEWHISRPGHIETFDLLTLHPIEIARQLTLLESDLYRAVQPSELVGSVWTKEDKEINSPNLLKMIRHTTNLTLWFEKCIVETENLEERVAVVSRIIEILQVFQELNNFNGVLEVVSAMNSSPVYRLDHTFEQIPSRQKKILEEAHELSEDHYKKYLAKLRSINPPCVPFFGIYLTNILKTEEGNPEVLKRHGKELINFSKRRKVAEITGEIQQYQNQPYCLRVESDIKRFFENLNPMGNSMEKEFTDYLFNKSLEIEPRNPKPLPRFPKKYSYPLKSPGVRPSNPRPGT

Compound	IC50 [nM]
C[C@@H](Nc1ncnc2c1cc(C(=O)N1CCCOCC1)c(=O)n2C)c1cccc(C(F)F)c1F [Example 26-9]	122
CC(=O)N1CC=C(c2cc3c(N[C@H](C)c4cccc(C(F)F)c4C)ncnc3n(C)c2=O)CC1 [Example 1-11]	29.3
C[C@@H](Nc1ncnc2c1cc(C(=O)N1CC(C)(O)C1)c(=O)n2C)c1cccc(C(F)F)c1F [Example 26-3]	407
C[C@@H](Nc1ncnc2c1cc(C1CCS(=O)(=O)CC1)c(=O)n2C)c1cccc(C(F)F)c1F [Example 8-5]	12.8
C[C@@H](Nc1ncnc2c1cc(C(=O)N1CCN(C)CC1)c(=O)n2C)c1cccc(C(F)F)c1F [Example 26-7]	50.8
CC(=O)N1CCC(F)(c2cc3c(N[C@H](C)c4cccc(C(F)F)c4F)ncnc3n(C)c2=O)CC1 [Example 29-5]	14.8
C[C@@H](Nc1ncnc2c1cc(C(=O)N1CCn3ccnc3C1)c(=O)n2C)c1cccc(C(F)F)c1F [Example 26-31]	230
COc1ncccc1-c1cc2c(N[C@H](C)c3cccc(C(F)F)c3F)nc(C)nc2n(C)c1=O [Example 21-9]	99
Cc1nc(N[C@H](C)c2cccc(C(F)F)c2F)c2cc(C3CCOC3)c(=O)n(C)c2n1 (some centres unmarked) [Example 1-29]	129
C[C@@H](Nc1ncnc2c1cc(C(=O)N1CCS(=O)(=O)CC1)c(=O)n2C)c1cccc(C(F)F)c1F [Example 26-38]	156
Cc1nc(N[C@H](C)c2cccc(C(F)F)c2F)c2cc(C3=CCN(C4COC4)CC3)c(=O)n(C)c2n1 [Example 1-26]	26.4
Cc1nc(N[C@H](C)c2cccc(C(F)F)c2F)c2cc(C3CCN(CC(F)(F)F)CC3)c(=O)n(C)c2n1 [Example 8-17]	708
C[C@@H](Nc1ncnc2c1cc(C(=O)N1CC(O)(C(F)(F)F)C1)c(=O)n2C)c1cccc(C(F)F)c1F [Example 26-41]	170
CC(=O)N1CC=C(c2cc3c(N[C@H](C)c4cccc(C(C)(F)F)c4)ncnc3n(C)c2=O)CC1 [Example 1-12]	34
Cc1nc(N[C@H](C)c2cccc(C(F)F)c2F)c2cc(-c3cccnc3OCCO)c(=O)n(C)c2n1 [Example 21-11]	173
CC(=O)N1CC=C(c2cc3c(N[C@H](C)c4cccc(C(F)(F)F)c4C)ncnc3n(C)c2=O)CC1 [Example 1-19]	44.3
CC(=O)N1CCC=C(c2cc3c(N[C@H](C)c4cccc(C(F)F)c4F)ncnc3n(C)c2=O)C1 [Example 1-14]	53
CC(=O)N1CC=C(c2cc3c(N[C@H](C)c4cccc(C(F)F)c4Cl)ncnc3n(C)c2=O)CC1 [Example 1-23]	94
C[C@@H](Nc1ncnc2c1cc(C1=CCN(C)CC1)c(=O)n2C)c1cccc(C(F)(F)F)c1 [Example 1-8]	20.1
COc1ncccc1-c1cc2c(N[C@H](C)c3cccc(C(F)F)c3F)ncnc2n(C)c1=O [Example 21-7]	47.1
C[C@@H](Nc1ncnc2c1cc(C(=O)N1CCN(C3COC3)CC1)c(=O)n2C)c1cccc(C(F)F)c1F [Example 26-43]	37
Cc1nc(N[C@H](C)c2cccc(C(F)F)c2F)c2cc(C3CCS(=O)(=O)CC3)c(=O)n(C)c2n1 [Example 8-12]	65
Cc1nc(N[C@H](C)c2cccc(C(F)F)c2F)c2cc(N3CCNCC3=O)c(=O)n(C)c2n1 [Example 2-4]	89.2
C[C@@H](Nc1ncnc2c1cc(C(=O)N1CCN(C)c3ncccc31)c(=O)n2C)c1cccc(C(F)F)c1F [Example 26-49]	176
C[C@@H](Nc1ncnc2c1cc(C1(O)CCC3(CC1)CS(=O)(=O)C3)c(=O)n2C)c1cccc(C(F)F)c1F [Example 28-6]	14
C[C@@H](Nc1ncnc2c1cc(C(=O)N1CCn3cncc3C1)c(=O)n2C)c1cccc(C(F)F)c1F [Example 26-30]	86.1

Target: SOS1 catalytic domain (residues 564-1049) (Homo sapiens (Human), UniProt Q07889)
Sequence (Q07889 564-1049): as above
Experiment: Potency assay: binding affinity to SOS1 by Surface Plasmon Resonance (SPR)
Settings: avi-tagged SOS1 catalytic domain immobilized on sensor chip; 1:1 equilibrium binding fit

Compound	Kd [nM]
C[C@@H](Nc1ncnc2c1cc(C(=O)N1CCCOCC1)c(=O)n2C)c1cccc(C(F)F)c1F [Example 26-9]	178
CC(=O)N1CC=C(c2cc3c(N[C@H](C)c4cccc(C(F)F)c4C)ncnc3n(C)c2=O)CC1 [Example 1-11]	54.6
C[C@@H](Nc1ncnc2c1cc(C(=O)N1CC(C)(O)C1)c(=O)n2C)c1cccc(C(F)F)c1F [Example 26-3]	404
C[C@@H](Nc1ncnc2c1cc(C1CCS(=O)(=O)CC1)c(=O)n2C)c1cccc(C(F)F)c1F [Example 8-5]	37.6
C[C@@H](Nc1ncnc2c1cc(C(=O)N1CCN(C)CC1)c(=O)n2C)c1cccc(C(F)F)c1F [Example 26-7]	77.5
CC(=O)N1CCC(F)(c2cc3c(N[C@H](C)c4cccc(C(F)F)c4F)ncnc3n(C)c2=O)CC1 [Example 29-5]	37.4
C[C@@H](Nc1ncnc2c1cc(C(=O)N1CCn3ccnc3C1)c(=O)n2C)c1cccc(C(F)F)c1F [Example 26-31]	322
COc1ncccc1-c1cc2c(N[C@H](C)c3cccc(C(F)F)c3F)nc(C)nc2n(C)c1=O [Example 21-9]	338
Cc1nc(N[C@H](C)c2cccc(C(F)F)c2F)c2cc(C3CCOC3)c(=O)n(C)c2n1 (some centres unmarked) [Example 1-29]	157
C[C@@H](Nc1ncnc2c1cc(C(=O)N1CCS(=O)(=O)CC1)c(=O)n2C)c1cccc(C(F)F)c1F [Example 26-38]	235
Cc1nc(N[C@H](C)c2cccc(C(F)F)c2F)c2cc(C3=CCN(C4COC4)CC3)c(=O)n(C)c2n1 [Example 1-26]	61
Cc1nc(N[C@H](C)c2cccc(C(F)F)c2F)c2cc(C3CCN(CC(F)(F)F)CC3)c(=O)n(C)c2n1 [Example 8-17]	796
C[C@@H](Nc1ncnc2c1cc(C(=O)N1CC(O)(C(F)(F)F)C1)c(=O)n2C)c1cccc(C(F)F)c1F [Example 26-41]	420
CC(=O)N1CC=C(c2cc3c(N[C@H](C)c4cccc(C(C)(F)F)c4)ncnc3n(C)c2=O)CC1 [Example 1-12]	36.8
Cc1nc(N[C@H](C)c2cccc(C(F)F)c2F)c2cc(-c3cccnc3OCCO)c(=O)n(C)c2n1 [Example 21-11]	234
CC(=O)N1CC=C(c2cc3c(N[C@H](C)c4cccc(C(F)(F)F)c4C)ncnc3n(C)c2=O)CC1 [Example 1-19]	144
CC(=O)N1CCC=C(c2cc3c(N[C@H](C)c4cccc(C(F)F)c4F)ncnc3n(C)c2=O)C1 [Example 1-14]	19
CC(=O)N1CC=C(c2cc3c(N[C@H](C)c4cccc(C(F)F)c4Cl)ncnc3n(C)c2=O)CC1 [Example 1-23]	122
C[C@@H](Nc1ncnc2c1cc(C1=CCN(C)CC1)c(=O)n2C)c1cccc(C(F)(F)F)c1 [Example 1-8]	20
COc1ncccc1-c1cc2c(N[C@H](C)c3cccc(C(F)F)c3F)ncnc2n(C)c1=O [Example 21-7]	92.5
C[C@@H](Nc1ncnc2c1cc(C(=O)N1CCN(C3COC3)CC1)c(=O)n2C)c1cccc(C(F)F)c1F [Example 26-43]	53.6
Cc1nc(N[C@H](C)c2cccc(C(F)F)c2F)c2cc(C3CCS(=O)(=O)CC3)c(=O)n(C)c2n1 [Example 8-12]	83.4
Cc1nc(N[C@H](C)c2cccc(C(F)F)c2F)c2cc(N3CCNCC3=O)c(=O)n(C)c2n1 [Example 2-4]	153
C[C@@H](Nc1ncnc2c1cc(C(=O)N1CCN(C)c3ncccc31)c(=O)n2C)c1cccc(C(F)F)c1F [Example 26-49]	311
C[C@@H](Nc1ncnc2c1cc(C1(O)CCC3(CC1)CS(=O)(=O)C3)c(=O)n2C)c1cccc(C(F)F)c1F [Example 28-6]	21
C[C@@H](Nc1ncnc2c1cc(C(=O)N1CCn3cncc3C1)c(=O)n2C)c1cccc(C(F)F)c1F [Example 26-30]	260

Test system: cellular pERK in PC-9 cells (EGFR Ex19Del)
Experiment: Potency assay: pERK (AlphaLISA SureFire Ultra p-ERK1/2) in PC-9 cells
Assay type: cell-based
Settings: Homo sapiens, PC-9, 1 h, PC-9 cells (EGFR Ex19Del), 1 hour incubation, AlphaLISA SureFire Ultra p-ERK1/2; read-out: SOS1 pERK IC50

Compound	IC50 [nM]
C[C@@H](Nc1ncnc2c1cc(C(=O)N1CCCOCC1)c(=O)n2C)c1cccc(C(F)F)c1F [Example 26-9]	479
CC(=O)N1CC=C(c2cc3c(N[C@H](C)c4cccc(C(F)F)c4C)ncnc3n(C)c2=O)CC1 [Example 1-11]	77
C[C@@H](Nc1ncnc2c1cc(C(=O)N1CC(C)(O)C1)c(=O)n2C)c1cccc(C(F)F)c1F [Example 26-3]	659
C[C@@H](Nc1ncnc2c1cc(C(=O)N1CCN(C)CC1)c(=O)n2C)c1cccc(C(F)F)c1F [Example 26-7]	186
CC(=O)N1CCC(F)(c2cc3c(N[C@H](C)c4cccc(C(F)F)c4F)ncnc3n(C)c2=O)CC1 [Example 29-5]	37.3
C[C@@H](Nc1ncnc2c1cc(C(=O)N1CCn3ccnc3C1)c(=O)n2C)c1cccc(C(F)F)c1F [Example 26-31]	2820
COc1ncccc1-c1cc2c(N[C@H](C)c3cccc(C(F)F)c3F)nc(C)nc2n(C)c1=O [Example 21-9]	335
Cc1nc(N[C@H](C)c2cccc(C(F)F)c2F)c2cc(C3CCOC3)c(=O)n(C)c2n1 (some centres unmarked) [Example 1-29]	309
C[C@@H](Nc1ncnc2c1cc(C(=O)N1CCS(=O)(=O)CC1)c(=O)n2C)c1cccc(C(F)F)c1F [Example 26-38]	392
Cc1nc(N[C@H](C)c2cccc(C(F)F)c2F)c2cc(C3=CCN(C4COC4)CC3)c(=O)n(C)c2n1 [Example 1-26]	260
C[C@@H](Nc1ncnc2c1cc(C(=O)N1CC(O)(C(F)(F)F)C1)c(=O)n2C)c1cccc(C(F)F)c1F [Example 26-41]	1400
CC(=O)N1CC=C(c2cc3c(N[C@H](C)c4cccc(C(C)(F)F)c4)ncnc3n(C)c2=O)CC1 [Example 1-12]	125
Cc1nc(N[C@H](C)c2cccc(C(F)F)c2F)c2cc(-c3cccnc3OCCO)c(=O)n(C)c2n1 [Example 21-11]	452
CC(=O)N1CC=C(c2cc3c(N[C@H](C)c4cccc(C(F)(F)F)c4C)ncnc3n(C)c2=O)CC1 [Example 1-19]	91
CC(=O)N1CCC=C(c2cc3c(N[C@H](C)c4cccc(C(F)F)c4F)ncnc3n(C)c2=O)C1 [Example 1-14]	218
CC(=O)N1CC=C(c2cc3c(N[C@H](C)c4cccc(C(F)F)c4Cl)ncnc3n(C)c2=O)CC1 [Example 1-23]	70.2
C[C@@H](Nc1ncnc2c1cc(C1=CCN(C)CC1)c(=O)n2C)c1cccc(C(F)(F)F)c1 [Example 1-8]	169
C[C@@H](Nc1ncnc2c1cc(C(=O)N1CCN(C3COC3)CC1)c(=O)n2C)c1cccc(C(F)F)c1F [Example 26-43]	181
Cc1nc(N[C@H](C)c2cccc(C(F)F)c2F)c2cc(N3CCNCC3=O)c(=O)n(C)c2n1 [Example 2-4]	906
C[C@@H](Nc1ncnc2c1cc(C(=O)N1CCN(C)c3ncccc31)c(=O)n2C)c1cccc(C(F)F)c1F [Example 26-49]	959
C[C@@H](Nc1ncnc2c1cc(C1(O)CCC3(CC1)CS(=O)(=O)C3)c(=O)n2C)c1cccc(C(F)F)c1F [Example 28-6]	123
C[C@@H](Nc1ncnc2c1cc(C(=O)N1CCn3cncc3C1)c(=O)n2C)c1cccc(C(F)F)c1F [Example 26-30]	656

From patent publication US11168102B1, “Bicyclic heteroaryl compounds and uses thereof” (Revolution Medicines, Inc., priority 2019, dated 2021)
